ChEMBL document CHEMBL1201862, “PubChem BioAssay data set” (2004)
Calls of active or inactive are those of the source.

Tests used:
[1] = biological target: T1, Sentrin-specific protease 8 (Homo sapiens, UniProt Q96LD8); type: functional;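 further: luminescence read-out of SENP8 inhibition, dose-response confirmation following an ultra-high-throughput screen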
T1 sequence (Q96LD8 whole entry): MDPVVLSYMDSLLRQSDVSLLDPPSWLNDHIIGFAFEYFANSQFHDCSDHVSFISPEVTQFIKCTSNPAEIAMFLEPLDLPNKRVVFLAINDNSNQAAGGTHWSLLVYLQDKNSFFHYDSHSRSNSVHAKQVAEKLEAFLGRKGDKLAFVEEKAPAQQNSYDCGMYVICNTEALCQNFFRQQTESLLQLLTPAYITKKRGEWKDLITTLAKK

[2] = biological target: T2, Sentrin-specific protease 7 (Homo sapiens, UniProt Q9BQF6); type: functional;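 further: Luminescence-based dose-response confirmation of ultra-high-throughput screening hits, measuring inhibition of SENP7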
T2 sequence (Q9BQF6 whole entry): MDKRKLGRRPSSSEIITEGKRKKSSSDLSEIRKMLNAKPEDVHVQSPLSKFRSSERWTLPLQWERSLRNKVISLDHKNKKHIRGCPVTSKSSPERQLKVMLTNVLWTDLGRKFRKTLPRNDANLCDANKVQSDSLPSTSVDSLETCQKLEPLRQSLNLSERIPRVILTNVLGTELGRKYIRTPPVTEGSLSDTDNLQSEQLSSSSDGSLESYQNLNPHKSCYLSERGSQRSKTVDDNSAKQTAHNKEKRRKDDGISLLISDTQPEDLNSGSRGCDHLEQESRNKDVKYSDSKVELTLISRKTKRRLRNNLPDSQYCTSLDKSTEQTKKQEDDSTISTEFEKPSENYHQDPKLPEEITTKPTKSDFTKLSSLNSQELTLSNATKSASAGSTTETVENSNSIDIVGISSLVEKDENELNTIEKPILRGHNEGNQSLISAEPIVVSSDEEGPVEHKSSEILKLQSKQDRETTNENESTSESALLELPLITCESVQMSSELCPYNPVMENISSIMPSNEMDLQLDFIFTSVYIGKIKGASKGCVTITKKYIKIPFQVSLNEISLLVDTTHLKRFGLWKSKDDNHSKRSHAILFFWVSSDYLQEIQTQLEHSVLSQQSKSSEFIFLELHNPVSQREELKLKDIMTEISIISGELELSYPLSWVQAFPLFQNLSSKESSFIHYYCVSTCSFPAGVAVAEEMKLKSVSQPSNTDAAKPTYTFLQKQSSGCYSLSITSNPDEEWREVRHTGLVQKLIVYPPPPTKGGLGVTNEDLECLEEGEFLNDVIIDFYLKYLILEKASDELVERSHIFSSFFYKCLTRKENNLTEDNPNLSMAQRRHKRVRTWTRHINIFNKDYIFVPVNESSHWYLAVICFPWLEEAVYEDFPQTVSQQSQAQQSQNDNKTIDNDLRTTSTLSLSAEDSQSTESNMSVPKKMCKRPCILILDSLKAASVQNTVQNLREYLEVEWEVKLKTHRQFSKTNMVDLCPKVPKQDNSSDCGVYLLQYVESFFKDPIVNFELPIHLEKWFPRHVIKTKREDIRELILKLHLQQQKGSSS

[3] = biological target: T3, Sentrin-specific protease 6 (Homo sapiens, UniProt Q9GZR1); type: functional;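 further: Luminescence-based dose-response confirmatory assay of SENP6 inhibition, following up an ultra-high-throughput screen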
T3 sequence (Q9GZR1 whole entry): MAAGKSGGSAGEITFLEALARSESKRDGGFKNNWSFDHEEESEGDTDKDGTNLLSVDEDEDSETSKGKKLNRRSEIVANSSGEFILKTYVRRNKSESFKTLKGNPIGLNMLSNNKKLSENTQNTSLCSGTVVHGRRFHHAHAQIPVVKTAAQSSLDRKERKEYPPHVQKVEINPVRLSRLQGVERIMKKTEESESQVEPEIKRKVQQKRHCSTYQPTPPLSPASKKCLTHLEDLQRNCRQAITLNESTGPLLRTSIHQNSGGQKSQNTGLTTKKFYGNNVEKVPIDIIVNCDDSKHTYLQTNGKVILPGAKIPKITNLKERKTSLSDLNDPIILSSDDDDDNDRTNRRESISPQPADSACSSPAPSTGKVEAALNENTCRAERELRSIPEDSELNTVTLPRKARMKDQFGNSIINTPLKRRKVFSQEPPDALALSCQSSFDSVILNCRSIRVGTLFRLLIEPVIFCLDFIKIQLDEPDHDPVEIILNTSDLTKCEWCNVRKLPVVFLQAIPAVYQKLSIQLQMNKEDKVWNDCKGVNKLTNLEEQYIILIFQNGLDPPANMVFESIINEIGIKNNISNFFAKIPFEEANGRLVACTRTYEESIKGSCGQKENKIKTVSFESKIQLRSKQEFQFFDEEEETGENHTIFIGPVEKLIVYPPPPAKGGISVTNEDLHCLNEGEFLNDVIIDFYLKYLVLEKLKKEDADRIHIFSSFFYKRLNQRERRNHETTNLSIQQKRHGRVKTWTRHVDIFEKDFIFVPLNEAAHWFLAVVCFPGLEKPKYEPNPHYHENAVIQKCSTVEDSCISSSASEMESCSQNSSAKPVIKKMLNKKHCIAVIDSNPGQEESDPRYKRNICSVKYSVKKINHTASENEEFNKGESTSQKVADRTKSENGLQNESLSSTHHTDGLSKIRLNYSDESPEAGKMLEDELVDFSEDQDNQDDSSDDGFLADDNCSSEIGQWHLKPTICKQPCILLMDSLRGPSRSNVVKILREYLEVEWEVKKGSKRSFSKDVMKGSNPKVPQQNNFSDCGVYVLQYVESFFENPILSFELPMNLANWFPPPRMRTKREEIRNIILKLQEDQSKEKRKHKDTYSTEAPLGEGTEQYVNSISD

Caspase-3 = biological target: T4, Caspase-3 (Homo sapiens, UniProt P42574); type: functional;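 further: Dose-response selectivity test against caspase-3 for candidate inhibitors of sentrin-specific proteases (SENPs)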
T4 sequence (P42574 whole entry): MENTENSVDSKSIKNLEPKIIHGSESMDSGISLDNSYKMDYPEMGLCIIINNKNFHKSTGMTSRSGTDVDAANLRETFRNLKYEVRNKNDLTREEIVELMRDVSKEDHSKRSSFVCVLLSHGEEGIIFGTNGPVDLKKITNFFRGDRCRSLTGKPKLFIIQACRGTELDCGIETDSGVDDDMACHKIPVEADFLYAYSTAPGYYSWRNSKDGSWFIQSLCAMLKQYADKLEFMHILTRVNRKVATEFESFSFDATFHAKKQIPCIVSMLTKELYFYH

[4] = intracellular Trypanosoma cruzi inhibitors in host cells – cell-based, plate reader, cherry-pick samples, set 3, dose response (AID 651818); type: functional;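 further: compounds incubated with infected cells for about four days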
BJ [5] = test: cytotoxicity toward Ras-transformed BJeLR fibroblasts, dose response, cell-based, alamar blue fluorescence, cherrypicked samples (AID 2631); type: functional; details: Homo sapiens;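 further: confirmatory dose-response assay in RAS-dependent BJ fibroblasts engineered with TERT, LT and ST, with cytotoxicity read by fluorescence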
INS1 = test: beta cell apoptosis inhibitors, cytokine rescue, dose response, luminescence, retest (AID 449756); type: functional, cell-based; details: Rattus norvegicus;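 further: cell death triggered by IL-1 beta plus TNF-alpha plus IFN-gamma mixture; protective hits raise ATP signal compared with cytokine alone wells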
BJ [6] = test: cells; type: functional, cell-based; details: Homo sapiens
BJ [7] = test: cytotoxicity toward BJ-TERT fibroblasts, dose response, cell-based, RAS-independent, luminescence (AID 1933); type: functional; details: Homo sapiens
BJ [8] = test: cytotoxicity toward BJ-TERT-LT-ST fibroblasts, dose response, cell-based, RAS-independent, luminescence (AID 1935); type: functional; details: Homo sapiens;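 further: BJ fibroblasts immortalized with TERT plus LT and ST oncogenes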
[9] = cytotoxicity toward DRD oncogenic fibroblasts, dose response, cell-based, non-viral oncogenic, luminescence (AID 1934); type: functional; details: Homo sapiens
[10] = microbe, parasite or virus in culture; type: functional; details: Mycobacterium tuberculosis
[11] = biological target: T5, Mannose-6-phosphate isomerase (Homo sapiens, UniProt P34949); test: human PMI inhibitors, high substrate, primary screen, biochemical, fluorescence intensity, high mannose 6-phosphate (AID 1220)
T5 sequence (P34949 whole entry): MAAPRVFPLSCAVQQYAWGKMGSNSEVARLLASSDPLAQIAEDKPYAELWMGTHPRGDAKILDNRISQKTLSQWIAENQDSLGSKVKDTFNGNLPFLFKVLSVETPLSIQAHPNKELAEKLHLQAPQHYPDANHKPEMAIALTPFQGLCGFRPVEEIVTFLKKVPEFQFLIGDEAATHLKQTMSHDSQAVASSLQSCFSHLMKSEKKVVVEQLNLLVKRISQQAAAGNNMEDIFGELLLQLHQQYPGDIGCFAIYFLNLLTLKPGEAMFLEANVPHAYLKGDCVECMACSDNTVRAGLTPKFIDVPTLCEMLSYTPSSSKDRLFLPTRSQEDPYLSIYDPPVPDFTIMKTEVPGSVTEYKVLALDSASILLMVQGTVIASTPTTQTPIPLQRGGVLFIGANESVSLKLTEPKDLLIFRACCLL

P388 = test: cells; type: functional; details: Mus musculus
P388/ADR = test: cells; type: functional; details: Mus musculus
SN12K1 = test: cells; type: functional; details: Homo sapiens
[12] = HEp-2 cell cytotoxicity, dose response, cytotoxicity control for RSV inhibitor project, HTS (AID 2410); type: functional; details: human respiratory syncytial virus

For `COc1ccc(NC(=O)c2cccc(Oc3ccccc3)c2)cn1`, the IC50 [1] was 16.4 µM (active), the IC50 [2] was 4.98 µM (active) and the IC50 [3] was 15.6 µM (active). The IC50 (Caspase-3) was 17.5 µM (active).

In the case of `Cc1ccc(S(=O)(=O)Nc2ccc3c(c2)CC(=O)N([C@H](C)CO)C[C@@H](C)[C@H](CN(C)Cc2ccc(C(=O)Nc4ccccc4N)cc2)O3)cc1`, the AC50 [4] is reported as 2.94 µM (active).

With `Cc1ccc(NS(=O)(=O)c2ccc(NC(=O)CN(c3cc([N+](=O)[O-])ccc3C)S(C)(=O)=O)cc2)c(C)c1` the EC50 (BJ [5]) was > 133 µM (inactive), the AC50 (INS1) was 1.49 µM (active) and the EC50 (BJ [6]) was > 75 µM (not active). The EC50 (BJ [7]) was 39.7 µM (active), the EC50 (BJ [8]) was > 150 µM (inconclusive) and the EC50 [9] was > 75 µM (not active). For the same compound, the CC50 [10] was 4.92 µM (active).

With `Cc1ccc(NC(=O)CN(C)C(=O)COc2cccc3cccnc23)cc1` the IC50 [11] was 44.5 µM (active).

For `C/C(=N\NS(=O)(=O)c1ccccc1)c1ccccc1`, the GI50 (P388) was > 100 µM (inactive), the GI50 (P388/ADR) was > 100 µM (inactive) and the GI50 (SN12K1) was > 100 µM (inactive).

With `C[C@@H]1CN([C@H](C)CO)C(=O)Cc2cc(NS(=O)(=O)c3ccccc3)ccc2O[C@@H]1CN(C)Cc1ccc(Oc2ccccc2)cc1` the AC50 [4] was 4.87 µM (active).

For `C[C@@H]1CN([C@H](C)CO)C(=O)Cc2cc(NC(=O)c3ccncc3)ccc2O[C@H]1CN(C)Cc1ccc(-c2ccccc2)cc1`, the AC50 [4] was 3.08 µM (active).

With `C[C@@H]1CN([C@@H](C)CO)C(=O)c2cc(NC(=O)Nc3ccc(C(F)(F)F)cc3)ccc2O[C@@H]1CN(C)S(=O)(=O)c1ccc(F)cc1` the AC50 [4] was 4.21 µM (active).

In the case of `COC1=C2CC(C)CC(OC)C(O)C(C)/C=C(\C)C(OC(N)=O)C(OC)/C=C\C=C(/C)C(=O)NC(=C(/C=N/C(C)(C)C)C1=O)C2=O` (centres undefined), the GI50 (P388) is reported as 2.33 µM (inactive), the GI50 (P388/ADR) is reported as 3.72 µM (inactive) and the GI50 (SN12K1) is reported as 3.64 µM (inactive).

For `S=C(N/N=C/c1ccc2ncccc2c1)Nc1ccccc1`, the EC50 (BJ [5]) was > 133 µM (inactive), the EC50 (BJ [6]) was 10.7 µM (active) and the CC50 [12] was 31.2 µM (active). The EC50 (BJ [7]) was 27.7 µM (active), the EC50 (BJ [8]) was > 150 µM (inconclusive) and the EC50 [9] was 14.3 µM (active).

For `O=C(Cc1ccc(Cl)cc1)c1c[nH]c(C(=O)NCc2cccnc2)c1`, the EC50 (BJ [5]) was 4.8 µM (active), the AC50 (INS1) was 0.907 µM (active) and the EC50 (BJ [6]) was 6.96 µM (active). For the same compound, the EC50 (BJ [7]) was 11.3 µM (inconclusive), the EC50 (BJ [8]) was > 150 µM (inconclusive) and the EC50 [9] was > 150 µM (not active).
